{"source": "patent EP4740948A1", "about": "(Dong Wha Pharm. Co., Ltd., priority 2023, dated 2025)", "assay_type_in_all_cases": "cell-based", "key": {"MIA-PaCa-2 cells": {"system": "MIA-PaCa-2 cells", "test": "Cancer cell proliferation inhibition (Cell Counting Kit-8), pancreatic cancer cell line", "conditions": "1000 nM, cultured seven to 11 days", "experimental": "(§1) In addition, as one example of solid cancer in which an overexpression of EZH2 and a consequent disease association therebetween is reported, a proliferation inhibitory activity of the 1,3-benzodioxole derivative compounds represented by chemical formula I of the present invention was evaluated in Lovo cells as a colorectal cancer cell line, SW-13 cells as an adrenal cancer cell line, MIA-PaCa-2 cells as a pancreatic cancer cell line, and NCI-H1299 cells as a lung cancer cell line.\n(§2) Each cell line (G401 cell, MKN-45 cell, Lovo cell, SW-13 cell, MIA-PaCa-2, NCI-H1299) of Table 2 below was cultured using RPMI1640, McCoy's 5a, L-15 or DMEM containing 10% fetal bovine serum, and the cells were seeded into wells of a 96-well culture dish at 100 to 1,000 cells each, and a test substance 1000 nM was cultured for seven to 11 days after drug treatment. After the culture, the cells were measured according to a manufacturer's instructions using Cell Counting Kit-8, and a cell proliferation inhibitory effect (% inhibition rate) of the test substance was obtained.\n(§3) The cell proliferation inhibitory effect (% inhibition rate) of the test substance was calculated using a following equation. % inhibition rate = {1−(testgroup/controlgroup)} X 100 [formula]"}, "NCI-H1299 cells": {"system": "NCI-H1299 cells", "test": "Cancer cell proliferation inhibition (Cell Counting Kit-8), lung cancer cell line", "conditions": "1000 nM, cultured seven to 11 days", "experimental": "as §1, §2, §3"}, "G401 cells": {"system": "G401 cells", "test": "Cancer cell proliferation inhibition (Cell Counting Kit-8), rhabdoid tumor cell line", "conditions": "1000 nM, cultured seven to 11 days; 1 µM", "description": "(§4) Among solid cancer cells, in G401 cells in which expression of SMARCB1, which is a member of switch/sucrosenon-fermenting (SWI/SNF), is defective as a cell line of a rhabdoid tumor in which a therapeutic effect may be expected through dual inhibition of EZH1/2, and MKN-45 cells in which expression of ARID1A, which is a member of SWI/SNF, is defective as a gastric cancer cell line, a proliferation inhibitory ability of the 1,3-benzodioxole derivative compounds represented by chemical formula I of the present invention was evaluated.\nas §2, §3"}, "SW-13 cells": {"system": "SW-13 cells", "test": "Cancer cell proliferation inhibition (Cell Counting Kit-8), adrenal cancer cell line", "conditions": "1000 nM, cultured seven to 11 days", "experimental": "as §1, §2, §3"}, "Lovo cells": {"system": "Lovo cells", "test": "Cancer cell proliferation inhibition (Cell Counting Kit-8), colorectal cancer cell line", "conditions": "1000 nM, cultured seven to 11 days", "experimental": "as §1, §2, §3"}, "MKN-45 cells": {"system": "MKN-45 cells", "test": "Cancer cell proliferation inhibition (Cell Counting Kit-8), gastric cancer cell line", "conditions": "1000 nM, cultured seven to 11 days", "description": "as §4, §2, §3"}}, "data": [{"smiles": "CCN1CCC(C2(C)Oc3c(-c4ccc(N5C[C@@H](C)O[C@@H](C)C5)nc4)cc(C(=O)NCc4c(SC)cc(C)[nH]c4=O)c(C)c3O2)CC1", "note": "(single isomer, unassigned) [Compound 50]", "values": [{"measurement": "% inhibition rate MIA-Paca2", "setting": "MIA-PaCa-2 cells", "result": "+ (+: ≤30%)"}, {"measurement": "% inhibition rate NCI-H129 9", "setting": "NCI-H1299 cells", "result": "++ (++: more than 30% and less than 70%)"}, {"measurement": "% inhibition rate G401", "setting": "G401 cells", "result": "+ (+: ≤30%)"}, {"measurement": "% inhibition rate SW-13", "setting": "SW-13 cells; 1 µM", "result": "+ (+: ≤30%)"}, {"measurement": "% inhibition rate LoVo", "setting": "Lovo cells; 1 µM", "result": "+ (+: ≤30%)"}, {"measurement": "% inhibition rate MKN -45", "setting": "MKN-45 cells", "result": "+ (+: ≤30%)"}]}, {"smiles": "CSc1cc(C)[nH]c(=O)c1CNC(=O)c1cc(-c2ccc(N3C[C@@H](C)O[C@@H](C)C3)nc2)c2c(c1C)OC(C)(C1CCN(CCCC(F)(F)F)CC1)O2", "note": "(single isomer, unassigned) [Compound 58]", "values": [{"measurement": "% inhibition rate MIA-Paca2", "setting": "MIA-PaCa-2 cells; 1 µM", "result": "+ (+: ≤30%)"}, {"measurement": "% inhibition rate NCI-H129 9", "setting": "NCI-H1299 cells; 1 µM", "result": "+ (+: ≤30%)"}, {"measurement": "% inhibition rate G401", "setting": "G401 cells", "result": "+ (+: ≤30%)"}, {"measurement": "% inhibition rate SW-13", "setting": "SW-13 cells; 1 µM", "result": "+ (+: ≤30%)"}, {"measurement": "% inhibition rate LoVo", "setting": "Lovo cells; 1 µM", "result": "++ (++: more than 30% and less than 70%)"}, {"measurement": "% inhibition rate MKN -45", "setting": "MKN-45 cells; 1 µM", "result": "+ (+: ≤30%)"}]}, {"smiles": "CCN1CCC(C2(C)Oc3c(-c4cnc(N5CCOCC5)nc4)cc(C(=O)NCc4c(SC)cc(C)[nH]c4=O)c(C)c3O2)CC1", "note": "(single isomer, unassigned) [Compound 74, 2-(1-ethylpiperidin-4-yl)-2,4-dimethyl-N-((6-methyl-4-(methylthio)-2-oxo-1,2-dihydropyridin-3-yl)methyl)-7-(2-morpholinopyrimidin-5-yl)benzo[d][1,3]dioxole-5-carboxamide]", "values": [{"measurement": "% inhibition rate MIA-Paca2", "setting": "MIA-PaCa-2 cells", "result": "+ (+: ≤30%)"}, {"measurement": "% inhibition rate NCI-H129 9", "setting": "NCI-H1299 cells", "result": "+ (+: ≤30%)"}, {"measurement": "% inhibition rate G401", "setting": "G401 cells", "result": "+ (+: ≤30%)"}, {"measurement": "% inhibition rate SW-13", "setting": "SW-13 cells; 1 µM", "result": "+ (+: ≤30%)"}, {"measurement": "% inhibition rate LoVo", "setting": "Lovo cells", "result": "++ (++: more than 30% and less than 70%)"}, {"measurement": "% inhibition rate MKN -45", "setting": "MKN-45 cells; 1 µM", "result": "+ (+: ≤30%)"}]}, {"smiles": "CCN1CCC(C2(C)Oc3c(-c4cnc(N(C)CC)nc4)cc(C(=O)NCc4c(SC)cc(C)[nH]c4=O)c(C)c3O2)CC1", "note": "(single isomer, unassigned) [Compound 84, 7-(2-(ethyl(methyl)amino)pyrimidin-5-yl)-2-(1-ethylpiperidin-4-yl)-2,4-dimethyl-N-((6-methyl-4-(methylthio)-2-oxo-1,2-dihydropyridin-3-yl)methyl)benzo[d][1,3]dioxole-5-carboxamide]", "values": [{"measurement": "% inhibition rate MIA-Paca2", "setting": "MIA-PaCa-2 cells", "result": "+ (+: ≤30%)"}, {"measurement": "% inhibition rate NCI-H129 9", "setting": "NCI-H1299 cells", "result": "+ (+: ≤30%)"}, {"measurement": "% inhibition rate G401", "setting": "G401 cells", "result": "+ (+: ≤30%)"}, {"measurement": "% inhibition rate SW-13", "setting": "SW-13 cells; 1 µM", "result": "+ (+: ≤30%)"}, {"measurement": "% inhibition rate LoVo", "setting": "Lovo cells; 1 µM", "result": "+ (+: ≤30%)"}, {"measurement": "% inhibition rate MKN -45", "setting": "MKN-45 cells", "result": "+ (+: ≤30%)"}]}, {"smiles": "CSc1cc(C)[nH]c(=O)c1CNC(=O)c1cc(-c2ccc(N3C[C@@H](C)O[C@@H](C)C3)nc2)c2c(c1C)OC(C)(C1CCN(CC(F)(F)F)CC1)O2", "note": "(single isomer, unassigned) [Compound 45]", "values": [{"measurement": "% inhibition rate MIA-Paca2", "setting": "MIA-PaCa-2 cells", "result": "+ (+: ≤30%)"}, {"measurement": "% inhibition rate NCI-H129 9", "setting": "NCI-H1299 cells", "result": "++ (++: more than 30% and less than 70%)"}, {"measurement": "% inhibition rate G401", "setting": "G401 cells", "result": "+ (+: ≤30%)"}, {"measurement": "% inhibition rate SW-13", "setting": "SW-13 cells", "result": "++ (++: more than 30% and less than 70%)"}, {"measurement": "% inhibition rate LoVo", "setting": "Lovo cells; 1 µM", "result": "++ (++: more than 30% and less than 70%)"}, {"measurement": "% inhibition rate MKN -45", "setting": "MKN-45 cells; 1 µM", "result": "+ (+: ≤30%)"}]}, {"smiles": "CSc1cc(C)[nH]c(=O)c1CNC(=O)c1cc(-c2cnc(N3CCOCC3)nc2)c2c(c1C)OC(C)(C1CCN(CC(F)(F)F)CC1)O2", "note": "(single isomer, unassigned) [Compound 70, 2,4-dimethyl-N-((6-methyl-4-(methylthio)-2-oxo-1,2-dihydropyridin-3-yl)methyl)-7-(2-morpholinopyrimidine-5-yl)-2-(1-(2,2,2-trifluoro)piperidin-4-yl)benzo[d][1,3]dioxole-5-carboxamide]", "values": [{"measurement": "% inhibition rate MIA-Paca2", "setting": "MIA-PaCa-2 cells", "result": "+ (+: ≤30%)"}, {"measurement": "% inhibition rate NCI-H129 9", "setting": "NCI-H1299 cells", "result": "+ (+: ≤30%)"}, {"measurement": "% inhibition rate G401", "setting": "G401 cells", "result": "+ (+: ≤30%)"}, {"measurement": "% inhibition rate SW-13", "setting": "SW-13 cells; 1 µM", "result": "+ (+: ≤30%)"}, {"measurement": "% inhibition rate LoVo", "setting": "Lovo cells", "result": "+++ (+++: ≥70%)"}, {"measurement": "% inhibition rate MKN -45", "setting": "MKN-45 cells", "result": "++ (++: more than 30% and less than 70%)"}]}]}
